According to US9629883B2, “Anticaries compositions and probiotics/prebiotics” (CENTRO SUPERIOR DE INVESTIGACIÓN EN SALUD PÚBLICA (CSISP), priority 2010, dated 2017):
Bridges are numbered along the chain shown (N, C = ends). Where no end group is shown, it is not given here.

Legend:
[1] = system: S. mutans; assay: Growth curves (optical density) of S. mutans in liquid BHI culture; assay type: cell-based, Streptococcus mutans
Method: Subsequently, 50-, 100- and 150-μl volumes of these two fractions, 3-10 kD and 0-3 kD, respectively, were added to a liquid culture of S. mutans and to a liquid culture of S. sobrinus, and the optical density was measured in a 48-well Fluostar luminometer every half-hour, with each treatment in triplicate, for 12-19 hours. […]
In order to corroborate that the peptides identified are those responsible for the inhibitory activity against cariogenic bacteria, the S12E (bacteriocins of bacterial origin) and T5A (peptide of human origin with a structure similar to that of defensins) peptides were chemically synthesised, obtaining approximately 4 mg of each of said peptides with a purity greater than 80%. They were totally re-suspended in 0.1% trichloroacetic acid (TCA) and the experiments designed to test the inhibition of liquid cultures of S. mutans by said chemically-synthesised compounds were performed. […]

[2] = system: S. sobrinus; assay: Growth curves (optical density) of S. sobrinus in liquid BHI culture; assay type: cell-based, Streptococcus sobrinus; conditions: chemically synthesised peptide, purity greater than 95%, re-suspended in ultrapure water, FIG. 6B
Method: Subsequently, […], respectively, were added to a liquid culture of S. mutans and to a liquid culture of S. sobrinus, and the optical density was measured in a 48-well Fluostar luminometer every half-hour, with each treatment in triplicate, for 12-19 hours.

Row | Substance | inhibitory activity against cultures of S. mutans ([1]; chemically synthesised peptide, purity greater than 80%, re-suspended in 0.1% TCA, FIG. 5) | inhibitory effect on S. mutans ([1]; chemically synthesised peptide, purity greater than 95%, re-suspended in ultrapure water, FIG. 6A) | inhibitory effect on S. sobrinus [2] | inhibitory effect on liquid cultures of S. mutans ([1]; chemically synthesised peptide, first synthesis without disulfide bridge) | inhibition of the growth of S. mutans at maximum peptide concentration ([1]; synthesised peptide with disulfide bridge between cysteines 3 and 12, 80 μg) | inhibition of the growth of S. mutans ([1]; synthesised peptide with disulfide bridge between cysteines 3 and 12, different concentrations, FIG. 7)
1 | S12E peptide: chemically synthesised bacteriocin-type anti-microbial peptide of bacterial origin, 39 amino acids, from S12E fosmid (MPFEAVGEARLAARTSRPGDRGPGNRAEESPDSAEQGGG; Streptococcus species) | inhibitory activity against cultures of S. mutans was confirmed | dose-dependent inhibitory effect | dose-dependent inhibitory effect |  |  | 
2 | T5A peptide: chemically synthesised defensin-type peptide of human origin, 26 amino acids; active form has disulfide bridge between cysteines 3 and 12 (MSCKKESLGSKCNYILLWYQPTESPH; disulfide 3-12; listed as Homo sapiens) |  |  |  | no inhibitory effect | total inhibition of the growth | capable of inhibiting the growth
